The values that follow are results of earlier work, collected in patent US20050000529A1, “Method and compositions for imparting cooling effect to tobacco products” (priority 2001, published 2005).

“Also recorded” adds a separate entry of the source.

The conditions of series [1]: tap water, triangle test.
For series [2] the following is noted: tap water, triangle test. This is another data set of the same source.
The conditions of series [3]: taste testing; comparison with related compounds.

`CCC1CC=C(N2CCCC2)C1=O` (centres unmarked) [Compound 9, 5-ethyl-2-(1-pyrrolidinyl)-2-cyclopenten-1-one]: the “Cooling Threshold” value in series [1] was 26.7 to 42.5 mg/kg. In series [2], the “Odor Threshold” value is 13.4 to 22.4 mg/kg. Moreover, the “cooling activity (in words)” value in series [3] was “significant increase in cooling activity”.

As to `CC1=C(N2CCCC2)C(=O)C(C)O1` (stereo not drawn) [Compound 24, 2,5-dimethyl-4-(l-pyrrolidinyl)-3-(2H)-furanone], the “Cooling Threshold” value in series [1] is 100.0 to 140.0 mg/kg. Also, in series [2], the “Odor Threshold” value is 30.0 to 60.0 mg/kg.

As for `CC1CC=C(N2CCOCC2)C1=O` (centres unmarked) [Compound 20, 5-methyl-2-(1-morpholino)-2-cyclopenten-1-one], the “Cooling Threshold” value in series [1] was 467.0 to 700.8 mg/kg. The “Odor Threshold” value in series [2] is 935.0 to 1558.0 mg/kg. Also, in series [3], the “cooling activity (in words)” value is “substantially decreases the cooling effect”.

As for `CC1=C(N2CCCC2)C(=O)CCC1` [Compound 16, 3-methyl-2-(1-pyrrolidinyl)-2-cyclohexen-1-one], the “Cooling Threshold” value in series [1] was 90.5 to 150.8 mg/kg. The “Odor Threshold” value in series [2] was 45.2 to 75.4 mg/kg.

Turning to `CC1CC(C)(C)C=C(N2CCCC2)C1=O` (centres unmarked) [Compound 19, 4,4,6-trimethyl-2-(1-pyrrolidinyl)-2-cyclohexen-1-one], the “Cooling Threshold” value in series [1] is 2213.0 to 3688.0 mg/kg. Besides, in series [2], the “Odor Threshold” value is 553.0 to 922.0 mg/kg. The “cooling activity (in words)” value in series [3] is given as “significantly decreases cooling activity”.

For the molecule `CC1=C(N2CCCC2)C(=O)OC1C` (centres unmarked) [Compound 26, 4,5-dimethyl-3-(1-pyrrolidinyl)-2-(5H)-furanone], the “Cooling Threshold” value in series [1] is 2.0 to 4.0 mg/kg. Further, the “Odor Threshold” value in series [2] is 32.0 to 64.0 mg/kg. In addition, the “cooling activity (in words)” value in series [3] is reported as “dramatically increases cooling activity”.

Take `CC1CC=C(N2CCCCC2)C1=O` (centres unmarked) [Compound 5, 5-methyl-2-(1-piperidinyl)-2-cyclopenten-1-one]: the “Cooling Threshold” value in series [1] is 16.0 to 24.0 mg/kg. The “Odor Threshold” value in series [2] was 12.0 to 20.0 mg/kg.

As to `CC1CC=C(N2CCCC2)C1=O` (centres unmarked) [Compound 2, 5-methyl-2-(1-pyrrolidinyl)-2-cyclopenten-1-one], the “Cooling Threshold” value in series [1] was 4.5 to 9.0 mg/kg. For the same molecule, the “Odor Threshold” value in series [2] is 2.6 to 5.2 mg/kg. Further, the “cooling activity (in words)” value in series [3] was “long lasting sensation of coolness; also recorded: high degree of cooling effect”.

Regarding `CC1CCC=C(N2CCCC2)C1=O` (centres unmarked) [Compound 18, 6-methyl-2-(1-pyrrolidinyl)-2-cyclohexen-1-one], the “Cooling Threshold” value in series [1] is 26.9 to 44.8 mg/kg. For the same molecule, the “Odor Threshold” value in series [2] is 3.4 to 5.6 mg/kg.

Regarding `CC1=C(N2CCC[C@H]2C(=O)O)C(=O)CC1` [Compound 22, (S)-3-methyl-2-(2-carboxy-l-pyrrolidinyl)-2-cyclopenten-1-one], in series [1], the “Cooling Threshold” value is 490.0 to 735.0 mg/kg. Besides, the “cooling activity (in words)” value in series [3] is reported as “substantially decreases the cooling effect”.

As to `CC1C=C(N2CCCC2)C(=O)C1C` (centres unmarked) [Compound 10, (E)-4,5-dimethyl-2-(1-pyrrolidinyl)-2-cyclopenten-1-one], in series [1], the “Cooling Threshold” value is 68.0 to 113.3 mg/kg. Besides, in series [2], the “Odor Threshold” value was 136.0 to 226.6 mg/kg. Further, the “cooling activity (in words)” value in series [3] is “significant increase in cooling activity”.

Turning to `CCCCN(CCCC)C1=CCC(C)C1=O` (centres unmarked) [Compound 7, 5-methyl-2-dibutylamino-2-cyclopenten-1-one], in series [1], the “Cooling Threshold” value was 48.4 to 67.8 mg/kg. In series [2], the “Odor Threshold” value was 2.4 to 2.8 mg/kg. Moreover, the “cooling activity (in words)” value in series [3] is given as “drastically decreases the cooling activity”.

As to `O=C1CCCC=C1N1CCCC1` [Compound 15, 2-(1-pyrrolidinyl)-2-cyclohexen-1-one], the “Cooling Threshold” value in series [1] is 495.0 to 830.0 mg/kg. Besides, the “Odor Threshold” value in series [2] is 62.0 to 106.0 mg/kg. Also, the “cooling activity (in words)” value in series [3] is reported as “significantly decreases cooling activity”.

With `CCN(CC)C1=CCC(C)C1=O` (centres unmarked) [Compound 6, 5-methyl-2-diethylamino-2-cyclopenten-1-one], the “Cooling Threshold” value in series [1] was 12.0 to 20.0 mg/kg. Besides, the “Odor Threshold” value in series [2] was 6.0 to 9.0 mg/kg. For the same molecule, in series [3], the “cooling activity (in words)” value was “does not substantially decrease the cooling activity”.

For `CC1=C(N2CCCC2)C(=O)C(C)C1` (centres unmarked) [Compound 11, 3,5-dimethyl-2-(1-pyrrolidinyl)-2-cyclopenten-1-one], in series [1], the “Cooling Threshold” value was 32.5 to 53.5 mg/kg. In addition, the “Odor Threshold” value in series [2] is 16.0 to 27.0 mg/kg. For the same molecule, the “cooling activity (in words)” value in series [3] was “small effect on cooling activity”.

As for `CC1=C(N2CCCC2)C(=O)CC(C)(C)C1` [Compound 17, 3,5,5-trimethyl-2-(1-pyrrolidinyl)-2-cyclohexen-1-one], the “Cooling Threshold” value in series [1] was 1605.0 to 2675.0 mg/kg. Further, the “Odor Threshold” value in series [2] was 50.2 to 83.6 mg/kg.

With `O=C1C=C(N2CCCC2)CC1` [Compound 13, 3-(1-pyrrolidinyl)-2-cyclopenten-1-one], in series [2], the “Odor Threshold” value is 234.0 to 390.0 mg/kg. In series [3], the “cooling activity (in words)” value was “loss of cooling activity”.

Consider `CC1=C(N2CCCC2)C(=O)OC1` [Compound 25, 4-methyl-3-(1-pyrrolidinyl)-2-(5H)-furanone], for which the “Cooling Threshold” value in series [1] was 0.05 to 0.06 mg/kg. Moreover, the “cooling activity (in words)” value in series [3] is “dramatically increases cooling activity; also recorded: high degree of cooling effect”.

Turning to `CC1=C(N2CCCC2)C(=O)CC1C` (centres unmarked) [Compound 12, 3,4-dimethyl-2-(1-pyrrolidinyl)-2-cyclopenten-1-one], the “Cooling Threshold” value in series [1] was 51.3 to 85.5 mg/kg. Also, the “Odor Threshold” value in series [2] was 25.7 to 42.8 mg/kg.

For the molecule `CC1=C(N2CCCC2)C(=O)CC1` [Compound 1, 3-methyl-2-(1-pyrrolidinyl)-2-cyclopenten-1-one], the “Cooling Threshold” value in series [1] is 29.0 to 43.5 mg/kg. Besides, in series [2], the “Odor Threshold” value was 43.5 to 72.5 mg/kg. Besides, the “cooling activity (in words)” value in series [3] is reported as “long lasting sensation of coolness; also recorded: high degree of cooling effect”.

Turning to `CC1=C(N2CCCC2)C(=O)CO1` [Compound 23, 5-methyl-4-(1-pyrrolidinyl)-3-(2H)-furanone], the “Cooling Threshold” value in series [1] was 1.5 to 3.0 mg/kg. In series [3], the “cooling activity (in words)” value is “strong increase in cooling activity; also recorded: high degree of cooling effect”.

On to `CCCCCCN(CCCCCC)C1=CCC(C)C1=O` (centres unmarked) [Compound 8, 5-methyl-2-dihexylamino-2-cyclopenten-1-one], for which, in series [3], the “cooling activity (in words)” value is recorded as “completely diminishes the cooling activity”.

Take `COC(=O)C1CCCN1C1=CC[C@H](C)C1=O` (stereo partly drawn) [Compound 21, (S)-5-methyl-2-(2-methoxycarbonyl-1-pyrrolidinyl)-2-cyclopenten-1-one]: the “Cooling Threshold” value in series [1] is 112.0 to 188.0 mg/kg. For the same molecule, the “cooling activity (in words)” value in series [3] is “substantially decreases the cooling effect”.

Turning to `CCN(CC)C1=C(C)CCC1=O` [Compound 4, 3-methyl-2-diethylamino-2-cyclopenten-1-one], in series [1], the “Cooling Threshold” value was 30.0 to 50.0 mg/kg. For the same molecule, the “Odor Threshold” value in series [2] is 2.0 to 3.0 mg/kg.

In the case of `CC1=C(N2CCCC2)CCC1=O` [Compound 14, 2-methyl-3-(1-pyrrolidinyl)-2-cyclopenten-1-one], the “Odor Threshold” value in series [2] is 92.0 to 138.0 mg/kg. The “cooling activity (in words)” value in series [3] is listed as “loss of cooling activity”.

As to `CC1=C(N2CCCCC2)C(=O)CC1` [Compound 3, 3-methyl-2-(1-piperidinyl)-2-cyclopenten-1-one], in series [1], the “Cooling Threshold” value is 60.0 to 100.0 mg/kg. For the same molecule, the “Odor Threshold” value in series [2] was 80.0 to 120.0 mg/kg.
